For twelve compounds, IC50, efflux ratio and Papp results are on record in patent US11802127B2, “3,4-dihydro-2,7-naphthyridine-1,6(2H,7H)-diones as MEK inhibitors” (Pfizer Inc., priority 2021, dated 2023).

Each structure is given as a SMILES string. Structures can show the parent of a compound that is named as a salt.

The test system of series [1] is ERK1/2(Thr202/Tyr204) phosphorylation (MEK-dependent) in A375 cells. In words: Cellular Phospho-p44/42 MAPK (Erk1/2) (Thr202/Tyr204) Assay. Type of series: cell-based. The following applies: Homo sapiens, A-375, 1-hour incubation, pERK1/2 (Thr202/Tyr204) In-Cell Western normalized to GAPDH. On the procedure: Inhibition of ERK1/2(Thr202/Tyr204) phosphorylation was determined by the following cellular assay, which comprises incubating cells with a compound for 1 hour and quantifying pERK signal by In-Cell Western on fixed cells and normalizing to GAPDH signal. A375 cells were obtained from the ATCC and grown in DMEM supplemented with 10% fetal bovine serum, penicillin/streptomycin, Glutamax®, non-essential amino acids, and sodium pyruvate. Cells were plated in 96-well plates at 30,000 cells/well and allowed to attach overnight at 37° C./5% CO2. Cells were treated with compounds prepared as a 10-point, 1:3 dilution series (range: 20 μM-0.05 nM; maximum concentration varied from 20 μM-1 μM), with a final DMSO concentration of 0.5%. Control wells contained either 0.5% DMSO alone (no inhibition control) or 1 μM of a potent control compound (complete inhibition control). After a 1-hour incubation, cells were fixed in 3.7% formaldehyde in dPBS (Dulbecco's phosphate-buffered saline) at room temperature for 20 minutes. Cells were then washed with dPBS and permeabilized in 100% MeOH at room temperature for 10 minutes. Following permeabilization, cells were washed in dPBS and incubated in LI-COR Blocking Buffer (LI-COR Biosciences, Cat #927-40000) for 1 hour or longer. Plates were then incubated with an antibody specific for the MEK-dependent ERK1/2 phosphorylation sites, threonine 202 and tyrosine 204 (Cell Signaling Technologies; Cat #9101), downstream of MEK in the MAP kinase signal transduction pathway, as well as GAPDH (Millipore; Cat #MAB374). pErk1/2 (Thr202/Tyr204) antibody was diluted in LI-COR blocking buffer containing 0.05% Tween-20 at 1:250; GAPDH was diluted at 1:2,500. The plates were incubated overnight at 4° C. After washing with PBS/0.05% Tween-20, the cells were incubated with fluorescently-labeled secondary antibodies (Anti-rabbit-Alexa Flour680, Invitrogen Cat #A21109; Anti-mouse-IRDye800CW, LI-COR Biosciences Cat #926-32210, both at 1:1000 dilution) for 1 hour. Cells were then washed, as above, and analyzed for fluorescence at both 680 and 800 nm wavelengths using the Odyssey CLx Infrared Imaging System (LI-COR Biosciences). Phosphorylated Erk1/2 (Thr202/Tyr204) signal was normalized to GAPDH signal for each well.

A further series concerns the target T1, BCRP (hBCRP) (Homo sapiens, UniProt Q9UNQ0).
T1 construct: expressed in transfected cells; host or cells: MDCKII (canine kidney) cells, canine P-gp knockout, transfected with BCRP
T1 sequence (Q9UNQ0 1-655): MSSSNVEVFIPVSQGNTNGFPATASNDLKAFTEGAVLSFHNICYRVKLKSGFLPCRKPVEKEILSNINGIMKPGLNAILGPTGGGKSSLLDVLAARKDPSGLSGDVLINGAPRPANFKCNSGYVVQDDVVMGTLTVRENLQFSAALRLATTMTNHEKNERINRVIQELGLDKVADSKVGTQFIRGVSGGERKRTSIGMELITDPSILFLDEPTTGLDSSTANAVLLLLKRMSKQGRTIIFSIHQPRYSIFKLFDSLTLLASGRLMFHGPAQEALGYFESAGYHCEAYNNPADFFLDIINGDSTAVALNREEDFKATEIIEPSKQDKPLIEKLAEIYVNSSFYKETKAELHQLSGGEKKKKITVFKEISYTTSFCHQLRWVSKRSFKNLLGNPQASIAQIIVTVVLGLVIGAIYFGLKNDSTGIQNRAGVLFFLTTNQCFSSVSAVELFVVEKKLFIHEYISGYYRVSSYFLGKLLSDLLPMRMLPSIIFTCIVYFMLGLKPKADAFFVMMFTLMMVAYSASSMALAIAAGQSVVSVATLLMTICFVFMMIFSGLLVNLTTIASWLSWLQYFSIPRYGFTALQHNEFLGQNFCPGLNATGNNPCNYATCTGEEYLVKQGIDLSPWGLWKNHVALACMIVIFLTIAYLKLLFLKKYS
In words: Efflux ratio in BCRP transfected MDCKII canine P-gp knockout cells. The following applies: Papp(B−A)/Papp(A−B), read-out: Efflux ratio MDCKII-hBCRP knock-in,canine pg-P KO. Type of series: in vitro ADME. Here is the method: (§1) BCRP transfected MDCKII canine P-gp knockout cell line was cultured and plated according to manufacturer's recommendations.
(§2) Both positive and negative controls were used to assess functionality of P-gp or BCRP efflux in the assays. Stock solutions for assay controls and the test article were prepared in DMSO for final test concentrations of 10 and 1 μM, respectively. Final organic concentration in the assay was 1%. All dosing solutions contained 10 μM lucifer yellow to monitor LLC-PK1 or MDCKII cell monolayer integrity.
(§3) For the apical to basolateral determination (A to B), 75 μL of the test article in transport buffer were added to the apical side of the individual transwells and 250 μL of basolateral media, without compound or lucifer yellow, were added to each well. For the basolateral to apical determination (B to A), 250 μL of test article in transport buffer were added to each well and 75 μL transport buffer, without compound or lucifer yellow, were added to each transwell. All tests were performed in triplicate, and each compound was tested for both apical to basolateral and basolateral to apical transport. The plates were incubated for 2 hours on a Lab-Line Instruments Titer Orbital Shaker (VWR, West Chester, PA) at 50 rpm and 37° C. with 5% CO2. All culture plates were removed from the incubator and 50 μL of media were removed from the apical and basolateral portion of each well and added to 150 μL of 1 μM labetalol in 2:1 acetonitrile (acetonitrile): H2O, v/v.
(§4) The plates were read using a Molecular Devices (Sunnyvale, CA) Gemini Fluorometer to evaluate the lucifer yellow concentrations at excitation/emission wavelengths of 425/535 nm. These values were accepted when found to be below 2% for apical to basolateral and 5% basolateral to apical flux across the MDR1-transfected LLC-PK1 or BCRP-transfected MDCKII cell monolayers. The plates were sealed and the contents of each well analyzed by LC-MS/MS. The compound concentrations were determined from the ratio of the peak areas of the compound to the internal standard (labetalol) in comparison to the dosing solution.
(§5) The LC-MS/MS system was comprised of an HTS-PAL autosampler (Leap Technologies, Carrboro, NC), an HP1200 HPLC (Agilent, Palo Alto, CA), and a MDS Sciex 4000 Q Trap system (Applied Biosystems, Foster City, CA). […] The total run time, including re-equilibration, for a single injection was 1.2 minutes. Mass spectrometric detection of the analytes was accomplished using the ion spray positive mode. Analyte responses were measured by multiple reaction monitoring (MRM) of transitions unique to each compound (the protonated precursor ion and selected product ions for each test article and m/z 329 to m/z 162 for labetalol, the internal standard).
(§6) An efflux ratio is calculated from the mean apical to basolateral (A−B) Papp data and basolateral to apical (B−A) Papp data: Efflux ratio=Papp(B−A)/Papp(A−B)

The next series addresses T2, P-gp (MDR1) (Homo sapiens, UniProt P08183).
T2 construct: expressed in transfected cells; host or cells: LLC-PK1 (porcine kidney) cells transfected with MDR1
In words: Efflux ratio in MDR1 transfected LLC-PK1 cells. Type of series: in vitro ADME. The note with it: pig, Papp(B−A)/Papp(A−B). On the procedure: (§7) Both LLC-PK1 and MDR1 transfected LLC-PK1 cells were cultured and plated according to manufacturer's recommendations with the exception that the passage media contained only 2% fetal bovine serum to extend passage time out to seven days.
as §2, §3, §4, §5, §6

Series [2] can be described thus: MDR1 LLC-PK1 and BCRP MDCKII Permeability Assay: permeability coefficient (Papp). The format is in vitro ADME. The following applies: MDCK, test article 1 μM, 37° C. On the procedure:
as §7, §1, §2, §3, §4, §5

T2 sequence (P08183 whole entry): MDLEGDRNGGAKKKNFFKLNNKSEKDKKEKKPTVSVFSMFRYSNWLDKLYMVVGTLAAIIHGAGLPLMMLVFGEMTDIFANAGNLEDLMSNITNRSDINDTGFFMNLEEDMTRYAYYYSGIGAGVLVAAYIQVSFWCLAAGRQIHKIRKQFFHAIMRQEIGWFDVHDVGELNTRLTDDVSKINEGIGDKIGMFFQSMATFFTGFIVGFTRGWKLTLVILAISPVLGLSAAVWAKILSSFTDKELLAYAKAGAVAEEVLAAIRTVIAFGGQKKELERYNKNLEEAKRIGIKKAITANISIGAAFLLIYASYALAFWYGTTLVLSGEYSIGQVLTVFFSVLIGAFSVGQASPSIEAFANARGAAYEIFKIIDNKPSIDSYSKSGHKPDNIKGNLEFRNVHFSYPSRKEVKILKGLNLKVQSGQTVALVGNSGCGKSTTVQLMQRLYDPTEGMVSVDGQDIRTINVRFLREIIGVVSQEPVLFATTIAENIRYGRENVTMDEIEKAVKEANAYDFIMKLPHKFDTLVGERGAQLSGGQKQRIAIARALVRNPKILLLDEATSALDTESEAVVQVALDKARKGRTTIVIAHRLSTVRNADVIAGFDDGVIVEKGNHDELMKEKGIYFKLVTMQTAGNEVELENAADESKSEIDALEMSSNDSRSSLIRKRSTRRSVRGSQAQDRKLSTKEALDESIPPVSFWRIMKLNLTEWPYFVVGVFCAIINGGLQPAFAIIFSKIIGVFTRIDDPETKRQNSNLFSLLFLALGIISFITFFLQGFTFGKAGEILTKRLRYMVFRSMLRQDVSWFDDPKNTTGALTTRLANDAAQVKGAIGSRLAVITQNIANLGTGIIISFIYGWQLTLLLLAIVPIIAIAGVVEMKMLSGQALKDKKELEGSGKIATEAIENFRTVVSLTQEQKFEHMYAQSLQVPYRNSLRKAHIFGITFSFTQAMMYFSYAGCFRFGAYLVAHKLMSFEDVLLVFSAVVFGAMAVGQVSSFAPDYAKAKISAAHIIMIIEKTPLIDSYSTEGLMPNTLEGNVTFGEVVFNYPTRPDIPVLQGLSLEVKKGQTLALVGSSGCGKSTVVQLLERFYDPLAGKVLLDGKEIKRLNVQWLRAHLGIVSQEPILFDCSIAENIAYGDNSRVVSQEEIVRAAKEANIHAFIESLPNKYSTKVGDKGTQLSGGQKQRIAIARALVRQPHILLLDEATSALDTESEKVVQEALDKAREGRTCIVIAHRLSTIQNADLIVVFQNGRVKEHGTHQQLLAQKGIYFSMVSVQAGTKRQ

What is called IC50 is the concentration that inhibits the measured activity by half. The low end stands for higher potency, the high end for lower potency. Broadly, the Papp is the rate of passage across a membrane or cell layer, normalised by area and donor concentration. `Cn1c(Nc2ccc(I)cc2F)c2c(cc1=O)CCN(C1CC1)C2=O` [Example 5, 2-cyclopropyl-8-((2-fluoro-4-iodophenyl)amino)-7-methyl-3,4-dihydro-2,7-naphthyridine-1,6(2H,7H)-dione] displayed an IC50 in series [1] of 0.02 µM. Besides, the efflux ratio at 2 h, 1 μM at BCRP (hBCRP) worked out at 1; on P-gp (MDR1), 1.6. Further, the Papp at 2 h, 1 μM in series [2] was 27.8 ×10⁻⁶ cm/s.
In the same order, the values of `Cn1c(Nc2ccc(Br)cc2Cl)c2c(cc1=O)CCN(OCCO)C2=O` [Example 10, 8-((4-bromo-2-chlorophenyl)amino)-2-(2-hydroxyethoxy)-7-methyl-3,4-dihydro-2,7-naphthyridine-1,6(2H,7H)-dione] are 0.058 µM, 6.3, 6.7 and 26.5 ×10⁻⁶ cm/s.
Take `Cn1c(Nc2ccc(C3CC3)cc2F)c2c(cc1=O)CCNC2=O` [Example 52, 8-((4-cyclopropyl-2-fluorophenyl)amino)-7-methyl-3,4-dihydro-2,7-naphthyridine-1,6(2H,7H)-dione]: in series [1], the IC50 came to 0.03 µM. In addition, the efflux ratio at 2 h, 1 μM on BCRP (hBCRP) turned out to be 1.2; on P-gp (MDR1), 1.3. The Papp at 2 h, 1 μM in series [2] stood at 36.8 ×10⁻⁶ cm/s.
In the same order, the values of `Cn1c(Nc2ccc(Br)cc2F)c2c(c(Cl)c1=O)CCN(OCCO)C2=O` [Example 37, 8-((4-bromo-2-fluorophenyl)amino)-5-chloro-2-(2-hydroxyethoxy)-7-methyl-3,4-dihydro-2,7-naphthyridine-1,6(2H,7H)-dione] are 0.116 µM, 3.3, 2.7 and 28.6 ×10⁻⁶ cm/s.
With `CSc1ccc(Nc2c3c(cc(=O)n2C)CCNC3=O)c(F)c1` [Example 50, 8-((2-fluoro-4-(methylthio)phenyl)amino)-7-methyl-3,4-dihydro-2,7-naphthyridine-1,6(2H,7H)-dione trifluoroacetate], the IC50 in series [1] was found to be 0.012 µM. Also, the efflux ratio at 2 h, 1 μM is 1.3 at BCRP (hBCRP) and 1.2 at P-gp (MDR1). Also, the Papp at 2 h, 1 μM in series [2] was determined as 36.7 ×10⁻⁶ cm/s.
`Cn1c(Nc2ccc(Br)cc2F)c2c(cc1=O)CCN(C1CC1)C2=O` [Example 1] returned an IC50 in series [1] of 0.562 µM. Also, the values for the efflux ratio at 2 h, 1 μM at BCRP (hBCRP) and on P-gp (MDR1) were 1.1 and 1.4, respectively. Further, the Papp at 2 h, 1 μM in series [2] was 27.2 ×10⁻⁶ cm/s.
In the case of `CON1CCc2cc(=O)n(C)c(Nc3ccc(I)cc3F)c2C1=O` [Example 29, 8-((2-fluoro-4-iodophenyl)amino)-2-methoxy-7-methyl-3,4-dihydro-2,7-naphthyridine-1,6(2H,7H)-dione], the IC50 in series [1] turned out to be 0.017 µM. Besides, the efflux ratio at 2 h, 1 μM on BCRP (hBCRP) came out at 1.1; on P-gp (MDR1) it was 1.5. The compound further returned a Papp at 2 h, 1 μM in series [2] of 32.8 ×10⁻⁶ cm/s.
Compound `C[C@H](O)CON1CCc2cc(=O)n(C)c(Nc3ccc(Br)cc3F)c2C1=O` [Example 33, (S)-8-((4-bromo-2-fluorophenyl)amino)-2-(2-hydroxypropoxy)-7-methyl-3,4-dihydro-2,7-naphthyridine-1,6(2H,7H)-dione] gave an IC50 in series [1] of 0.019 µM. For the same compound, the efflux ratio at 2 h, 1 μM amounted to 8.3 on BCRP (hBCRP) and 4 on P-gp (MDR1). For the same compound, in series [2], the apparent permeability (Papp) at 2 h, 1 μM came out at 24.7 ×10⁻⁶ cm/s.
`CSc1ccc(Nc2c3c(c(C)c(=O)n2C)CCNC3=O)c(F)c1` [Example 55, 8-((2-fluoro-4-(methylthio)phenyl)amino)-5,7-dimethyl-3,4-dihydro-2,7-naphthyrdine-1,6(2H,7H)-dione]: the 50% inhibitory concentration (IC50) in series [1] came out at 0.028 µM. Also, the efflux ratio at 2 h, 1 μM on BCRP (hBCRP) and at P-gp (MDR1) was 1.4 throughout. This compound registered a Papp at 2 h, 1 μM in series [2] of 37.4 ×10⁻⁶ cm/s.
As to `C[C@H](O)CON1CCc2cc(=O)n(C)c(Nc3ccc(I)cc3F)c2C1=O` [Example 31, (S)-8-((2-fluoro-4-iodophenyl)amino)-2-(2-hydroxypropoxy)-7-methyl-3,4-dihydro-2,7-naphthyridine-1,6(2H,7H)-dione], in series [1], inhibition was half-maximal at 0.001 µM (IC50). Besides, the efflux ratio at 2 h, 1 μM at BCRP (hBCRP) was found to be 4.4; on P-gp (MDR1), 5.3. Also, the Papp at 2 h, 1 μM in series [2] was found to be 24.8 ×10⁻⁶ cm/s.
In the same order, the values of `Cc1c2c(c(Nc3ccc(I)cc3F)n(C)c1=O)C(=O)N(OCCO)CC2` [Example 40, 8-((2-fluoro-4-iodophenyl)amino)-2-(2-hydroxyethoxy)-5,7-dimethyl-3,4-dihydro-2,7-naphthyridine-1,6(2H,7H)-dione] are 0.004 µM, 1.9, 3.6 and 28.4 ×10⁻⁶ cm/s.
On to `CC(C)c1ccc(Nc2c3c(cc(=O)n2C)CCN(OCCO)C3=O)c(F)c1` [Example 18, 8-((2-fluoro-4-isopropylphenyl)amino)-2-(2-hydroxyethoxy)-7-methyl-3,4-dihydro-2,7-naphthyrdine-1,6(2H,7H)-dione], for which the IC50 in series [1] was 0.039 µM. Moreover, the efflux ratio at 2 h, 1 μM was found to be 2 at BCRP (hBCRP) and 2.3 on P-gp (MDR1).
